This note sets out measurements from ChEMBL document CHEMBL1139796, “Novel anti-tuberculosis agents from MCR libraries” (Bioorg Med Chem Lett, 2007).

SMILES strings stand for the structures. Converted amounts (≈) assume the structure as drawn.

One experiment deals with Vero. The experiment is described as follows: Cytotoxicity against Vero cells. Type of experiment: cell-based. The settings on record: Chlorocebus sabaeus.
Experiment [1] is described as follows: Selectivity index, IC50 for Vero cells to MIC for Mycobacterium tuberculosis H37Rv. It counts as functional.
The test system of experiment [2] is Mycobacterium tuberculosis. Kind of experiment: Antimycobacterial activity against Mycobacterium tuberculosis H37Rv by broth microdilution alamar blue assay. Type of experiment: functional.
For experiment [3], the system named is Mycobacterium tuberculosis. Kind of experiment: Reduction of Mycobacterium tuberculosis H37Rv growth in mouse peritoneal macrophage monolayers after 7 days. Type of experiment: functional. Particulars: 168 h.
Experiment [4] concerns Mycobacterium tuberculosis. The experiment is described as follows: Antimycobacterial activity against Mycobacterium tuberculosis at 12.5 ug/ml. The settings on record: read-out: GI. It counts as functional.

In the experiment on Vero, `C=CCNC(=O)C(CCCC)N(CC=C)C(=O)c1cccnc1.Cl` (stereo not given) gave an IC50 of 31.1 µg/mL. Further, the Selectivity index in experiment [1] came to 9.9. The same molecule gave an MIC in experiment [2] of 3.13 µg/mL.
The molecule `CCCCC(C(=O)NCc1ccccc1)N(C(=O)c1cnccn1)C1CCCCC1` (stereo not given) had a 50% inhibitory concentration (IC50) in the experiment with Vero of 27.9 µg/mL (≈ 68.3 µM). Moreover, the Selectivity index in experiment [1] was 9.9. In experiment [2], this molecule had an MIC of 3.13 µg/mL (≈ 7.66 µM).
Turning to `CC(C)CCN(C(=O)c1cccnc1)C(C(=O)NCc1cccnc1)c1ccccc1` (stereo not given), inhibition with Vero was half-maximal at 50.3 µg/mL (≈ 121 µM) (IC50). The molecule further returned a Selectivity index in experiment [1] of 16.1. In experiment [3], the EC90 was more than 12.5 µg/mL and the EC99 was more than 12.5 µg/mL. In experiment [2], the MIC worked out at 3.13 µg/mL (≈ 7.51 µM).
`C=CCNC(=O)C1(OC(=O)c2cccnc2)CCN(Cc2ccccc2)CC1` gave an IC50 in the experiment on Vero of more than 62.5 µg/mL. The same molecule returned a Selectivity index in experiment [1] of more than 10. The same molecule yielded a minimal inhibitory concentration (MIC) in experiment [2] of 6.25 µg/mL (≈ 16.5 µM).
Turning to `C=CCNC(=O)C(N(CC(C)(C)C)C(=O)c1cccnc1)C(Cl)(Cl)Cl` (stereo not given), the inhibition of growth at 12.5 µg/mL in experiment [4] was determined as 74%.
